Laboratory results from ChEMBL document CHEMBL1201862, “PubChem BioAssay data set” (2004).
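Compound exposure: 48 hours, 5 concentrations, 96-well plates. Here, GI50 denotes the concentration required for 50% inhibition of growth.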 Activity calls are given as the source filed them. Rule as the data show it: active = GI50 up to about 1.1 µM and inactive = higher. Peptide text beside a SMILES is read from it.

Tests used:
Assay in all cases: NCI-60 cell line screen, 48 h
SNB-78 = system: SNB-78
DMS-273 = system: DMS-273
HCT-15 = system: HCT-15
SN12C = system: SN12C
HL-60 = system: HL-60
IGROV-1 = system: IGROV-1
MOLT-4 = system: MOLT-4
KM-20L2 = system: KM-20L2
HOP-92 = system: HOP-92
OVCAR-3 = system: OVCAR-3
OVCAR-5 = system: OVCAR-5
SK-OV-3 = system: SK-OV-3
M14 = system: M14
U-251 = system: U-251
OVCAR-4 = system: OVCAR-4
NCI-H460 = system: NCI-H460
Malme-3M = system: Malme-3M
MDA-N = system: MDA-N
SK-MEL-28 = system: SK-MEL-28
RXF 393 = system: RXF 393

Structure (SMILES)	GI50 (SNB-78)	GI50 (DMS-273)	GI50 (HCT-15)	GI50 (SN12C)	GI50 (HL-60)	GI50 (IGROV-1)	GI50 (MOLT-4)	GI50 (KM-20L2)	GI50 (HOP-92)	GI50 (OVCAR-3)	GI50 (OVCAR-5)	GI50 (SK-OV-3)	GI50 (M14)	GI50 (U-251)	GI50 (OVCAR-4)	GI50 (NCI-H460)	GI50 (Malme-3M)	GI50 (MDA-N)	GI50 (SK-MEL-28)	GI50 (RXF 393)
O=C(O)C1OC(n2cc(F)c(=O)[nH]c2=O)CC1O (configuration not stated)	> 26.2 µM (inactive)	12.9 µM (inactive)	77.4 µM	17.7 µM (inactive)	30.8 µM (inactive)	> 100 µM (inactive)	7.73 µM (inactive)	23.8 µM (inactive)	7.13 µM (inactive)	60.1 µM (inactive)	> 100 µM (inactive)	> 94.8 µM (inactive)	29.4 µM (inactive)	35.2 µM (inactive)	> 100 µM (inactive)	0.447 µM (active)	> 100 µM (inactive)	> 97.3 µM (inactive)	53.1 µM (inactive)	> 87.9 µM (inactive)
COc1cc(C(=O)C/C(CCCC(=O)Nc2ccccc2[N+](=O)[O-])=N/NC(=O)c2cc3ccccc3cc2O)ccc1O	> 63.8 µM (inactive)	15.6 µM (inactive)	20.2 µM	44 µM (inactive)	0.556 µM (active)	34.4 µM (inactive)	26.1 µM (inactive)	27.4 µM (inactive)	32.7 µM (inactive)	16.1 µM (inactive)	46.3 µM (inactive)	49.7 µM (inactive)	20.8 µM (inactive)	52.1 µM (inactive)	38.3 µM (inactive)	40.6 µM (inactive)	29.2 µM (inactive)	–	58.2 µM (inactive)	> 71 µM (inactive)
CC(C)CC(NC(=O)C(CC(C)C)NC(=O)C(Cc1c[nH]cn1)NC(=O)C(C)NC(=O)C(NC(=O)C(C)NC(=O)C(Cc1c[nH]c2ccccc12)NC(=O)C(CCC(=O)O)NC(=O)C(N)Cc1ccccc1)C(C)C)C(N)=O (configuration not stated) (H-FEWAVAHLL-NH2; configuration not given here)	> 100 µM (inactive)	> 100 µM (inactive)	> 12.5 µM	> 12.5 µM (inactive)	> 12.5 µM (inactive)	> 12.5 µM (inactive)	> 12.5 µM (inactive)	> 100 µM (inactive)	–	> 12.5 µM (inactive)	> 12.5 µM (inactive)	> 12.5 µM (inactive)	> 12.5 µM (inactive)	> 12.5 µM (inactive)	> 12.5 µM (inactive)	> 12.5 µM (inactive)	> 12.5 µM (inactive)	> 12.5 µM (inactive)	63.4 µM (inactive)	> 12.5 µM (inactive)
COc1ccc(C(c2c(O)c3ccccc3n(C)c2=O)c2c(O)c3ccccc3n(C)c2=O)cc1	7.16 µM (inactive)	31.2 µM (inactive)	> 10 µM	66.5 µM (inactive)	31.6 µM (inactive)	71.8 µM (inactive)	35.9 µM (inactive)	21.3 µM (inactive)	22.6 µM (inactive)	33 µM (inactive)	32.3 µM (inactive)	58.3 µM (inactive)	34.9 µM (inactive)	19.1 µM (inactive)	62.8 µM (inactive)	> 100 µM (inactive)	47.2 µM (inactive)	–	39.2 µM (inactive)	73.3 µM (inactive)
